According to patent US20080207573A1, “COMPOUNDS FOR TREATING VIRAL INFECTIONS” (priority 2006, published 2008):
Where two headings read alike, the source gives them in different places.

How the values were obtained:
[1] = tested on: HIV-1 laboratory strain, NL4-3; test: MT-4 Cytoprotection Assay (protection from HIV-induced cytopathic effect, WST-1 readout); format: cell-based
Description: MT-4 Cytoprotection Assay
(§1) The HTLV-1 transformed T cell line, MT-4, is highly susceptible to HIV-1 infection. Anti-HIV-1 agents were evaluated in this target cell line by protection from the HIV-induced cytopathic effect. In this assay, viability of both HIV-1 and mock-infected cells was assessed in a […] assay that monitors the ability of metabolically-active cells to reduce the tetrazolium salt WST-1. Cytoprotection by antiviral compounds is indicated by the positive readout of increased WST-1 cleavage.
(§2) Briefly, exponentially growing MT-4 cells were mock-infected or batch-infected with the HIV-1 laboratory strain, NL4-3, at a multiplicity of infection of 0.0005. Following a two hour infection, the cells were washed to remove unbound virus and plated in the presence of increasing concentrations of compound. After four days incubation, cytoprotection in the infected cells and compound toxicity in mock-infected cells were analyzed using the WST-1 assay.

HIV-1IIIB = test: PBMC Drug Susceptibility Assay (HIV-1 p24 in supernatant); format: cell-based; details: Human immunodeficiency virus 1, PBMC, 168 h, HIV-1IIIB-infected human PBMCs, seven days
Text: PBMC Drug Susceptibility Assay
Human peripheral blood mononuclear cells (PBMCS) were used to test compound antiviral activity as an indicator for clinical efficacy. PBMCs were isolated from two donors using a Ficoll-Hypaque density gradient, pooled and stimulated with PHA-L for three days. After stimulation, the cells were washed and maintained in culture medium containing IL-2. The stimulated cells were then mock-infected or batch-infected with the strain HIV-1IIIB at MOI 0.01 for one hour. Cells (unwashed) were then plated in the presence of increasing concentrations of compound and incubated for seven days. […] Compound toxicity in mock-infected cells was analyzed using the WST-1 assay.

[2] = Human Liver Microsome Assay (metabolic stability); format: in vitro ADME; details: human liver microsomes 0.5 mg/mL, test article 1 μM; for half-life at 1 μM: pH 7.4, read-out: Metabolic Stability in Human liver Microsomes T1/2
Description: Human Liver Microsome Assay
The microsomal fraction of liver homogenates contains endoplasmic reticulum derived cytochrome P450 enzymes that constitute the major phase I drug metabolizing enzymes. Briefly, to aid prediction of the in vivo rate of clearance of a dosed test article, an in vitro incubation containing human liver microsomes (0.5 mg/mL final protein concentration) and test article (1 μM incubation concentration) in the presence and absence of the necessary cofactor NADPH (1 mM incubation concentration) is conducted. The incubation is performed in a buffered aqueous system (100 mM potassium phosphate, pH 7.4). The concentration of the parent compound is determined using liquid chromatography coupled with tandem mass spectrometry and reported as percent remaining from a zero minute concentrations.

[3] = Compound toxicity in mock-infected MT-4 cells (WST-1 assay); format: cell-based; details: human, read-out: TC50 (concentration of compound that results in death of 50% of the host cells)
Description: as §1, §2

[4] = tested on: HIV-1 laboratory strain, NL4-3; test: MT-4 Cytoprotection Assay (protection from HIV-induced cytopathic effect, WST-1 readout); format: cell-based; details: Human immunodeficiency virus 1, NL43; Table 6, printed in the MT4 IC50 column but marked MT4 assay
[5] = Human immunodeficiency virus 1, NL43, MT4, Table 7, MT-4 cells, HIV-1 NL4-3, read-out: MT4 EC50
[6] = Human immunodeficiency virus 1, NL43, MT4, 96 h, MT-4 cells, HIV-1 NL4-3, four days, read-out: EC50 (concentration of compound that reduces the virus induced cytopathic effect by 50% (MT-4))
[7] = Human immunodeficiency virus 1, NL43, list of representative compounds, read-out: EC50 of less than about 100 nm (representative compounds)

C=C(C)[C@@H]1CC[C@]2(C(=O)NCc3cccnc3C(=O)O)CC[C@]3(C)C(CCC4[C@@]5(C)CCC(OC(=O)CC(C)(C)C(=O)O)C(C)(C)C5CC[C@]43C)C12 (stereo partly drawn) [Compound 130]
EC50 [1, 5]: 24 nM | IC50 (HIV-1IIIB; Table 7): 44 nM

C=C(C)[C@@H]1CC[C@]2(C(=O)N[C@@H](C)c3ccccn3)CC[C@]3(C)C(CCC4[C@@]5(C)CCC(OC(=O)CC(C)(C)C(=O)O)C(C)(C)C5CC[C@]43C)C12 (single isomer, unassigned) [Compound 105b]
Metabolic Stability in Human liver Microsomes % compound remaining at 40 minutes [2]: 32% | half-life at 1 μM [2]: 27 min | IC50 (HIV-1IIIB; Table 6): 3.1 nM

C=C(C)[C@@H]1CC[C@]2(C(=O)NCc3ccc(F)cc3C(=O)O)CC[C@]3(C)C(CCC4[C@@]5(C)CCC(OC(=O)CC(C)(C)C(=O)O)C(C)(C)C5CC[C@]43C)C12 (stereo partly drawn) [Compound 128]
EC50 [1, 5]: 28 nM | IC50 (HIV-1IIIB; Table 7): 3.6 nM

C=C(C)[C@@H]1CC[C@]2(C(=O)NCc3ccc(C(=O)O)cc3)CC[C@]3(C)[C@H](CC[C@@H]4[C@@]5(C)CC[C@H](OC(=O)CC(C)(C)C(=O)O)C(C)(C)[C@@H]5CC[C@]43C)[C@@H]12 [Compound 71]
EC50 [1, 6]: ~126 nM | CC50 at 4 days [3]: ~7700 nM

C=C(C)[C@@H]1CC[C@]2(C(=O)NCc3ccccc3C(=O)O)CC[C@]3(C)[C@H](CC[C@@H]4[C@@]5(C)CC[C@H](OC(=O)CC(C)(C)C(=O)O)C(C)(C)[C@@H]5CC[C@]43C)[C@@H]12 [Compound 73]
EC50 [1, 6]: ~8.1 nM | EC50 [1, 7]: < 100 nM | CC50 at 4 days [3]: ~6300 nM

C=C(C)[C@@H]1CC[C@]2(C(=O)N[C@H](C)c3ccccn3)CC[C@]3(C)C(CCC4[C@@]5(C)CCC(OC(=O)CC(C)(C)C(=O)O)C(C)(C)C5CC[C@]43C)C12 (single isomer, unassigned) [Compound 105a]
Metabolic Stability in Human liver Microsomes % compound remaining at 40 minutes [2]: 44% | half-life at 1 μM [2]: 36 min | IC50 (HIV-1IIIB; Table 6): 2.6 nM

C=C(C)[C@@H]1CC[C@]2(C(=O)NC3(c4ccccn4)CC3)CC[C@]3(C)[C@H](CC[C@@H]4[C@@]5(C)CC[C@H](OC(=O)CC(C)(C)C(=O)O)C(C)(C)[C@@H]5CC[C@]43C)[C@@H]12 [Compound 121]
Metabolic Stability in Human liver Microsomes % compound remaining at 40 minutes [2]: 42% | half-life at 1 μM [2]: 30 min | EC50 [1, 7]: < 100 nM | IC50 (HIV-1IIIB; Table 6): 18 nM

C=C(C)[C@@H]1CC[C@]2(C(=O)NCCc3ccc(OC)cc3)CC[C@]3(C)[C@H](CC[C@@H]4[C@@]5(C)CC[C@H](OC(=O)CC(C)(C)C(=O)O)C(C)(C)[C@@H]5CC[C@]43C)[C@@H]12 [Compound 70]
EC50 [1, 6]: ~2.9 nM | EC50 [1, 7]: < 100 nM | CC50 at 4 days [3]: > 10000 nM

C=C(C)[C@@H]1CC[C@]2(C(=O)NCc3nc4ccccc4n3C)CC[C@]3(C)[C@H](CC[C@@H]4[C@@]5(C)CC[C@H](OC(=O)CC(C)(C)C(=O)O)C(C)(C)[C@@H]5CC[C@]43C)[C@@H]12 [Compound 109]
EC50 [1, 7]: < 100 nM

CC(C)[C@@H]1CC[C@]2(C(=O)NCc3ccccc3C(=O)O)CC[C@]3(C)[C@H](CC[C@@H]4[C@@]5(C)CC[C@H](OC(=O)CC(C)(C)C(=O)O)C(C)(C)[C@@H]5CC[C@]43C)[C@@H]12 [Compound 122]
EC50 [1, 7]: < 100 nM

C=C(C)[C@@H]1CC[C@]2(C(=O)NCCOc3ccc(OC)cc3)CC[C@]3(C)[C@H](CC[C@@H]4[C@@]5(C)CC[C@H](OC(=O)CC(C)(C)C(=O)O)C(C)(C)[C@@H]5CC[C@]43C)[C@@H]12 [Compound 97]
EC50 [1, 7]: < 100 nM

C=C(C)[C@@H]1CC[C@]2(C(=O)NCc3ccncc3)CC[C@]3(C)[C@H](CC[C@@H]4[C@@]5(C)CC[C@H](O)C(C)(C)[C@@H]5CC[C@]43C)[C@@H]12 [Compound 46]
EC50 [1, 6]: ~8600 nM | CC50 at 4 days [3]: > 10000 nM

C=C(C)[C@@H]1CC[C@]2(C(=O)NCCc3ccncc3)CC[C@]3(C)[C@H](CC[C@@H]4[C@@]5(C)CC[C@H](OC(=O)CC(C)(C)C(=O)O)C(C)(C)[C@@H]5CC[C@]43C)[C@@H]12 [Compound 91]
EC50 [1, 7]: < 100 nM

C=C(C)[C@@H]1CC[C@]2(C(=O)NCCCc3ccc(OC)c(OC)c3)CC[C@]3(C)[C@H](CC[C@@H]4[C@@]5(C)CC[C@H](OC(=O)CC(C)(C)C(=O)O)C(C)(C)[C@@H]5CC[C@]43C)[C@@H]12 [Compound 102]
EC50 [1, 7]: < 100 nM

C=C(C)[C@@H]1CC[C@]2(C(=O)NCc3cccnc3)CC[C@]3(C)[C@H](CC[C@@H]4[C@@]5(C)CC[C@H](OC(=O)CC(C)(C)C(=O)O)C(C)(C)[C@@H]5CC[C@]43C)[C@@H]12 [Compound 76]
EC50 [1, 6]: ~11 nM | EC50 [1, 7]: < 100 nM | CC50 at 4 days [3]: > 10000 nM

C=C(C)[C@@H]1CC[C@]2(C(=O)NCc3ccccn3)CC[C@]3(C)[C@H](CC[C@@H]4[C@@]5(C)CC[C@H](OC(=O)CC(C)(C)C(=O)O)C(C)(C)[C@@H]5CC[C@]43C)[C@@H]12 [Compound 83]
Metabolic Stability in Human liver Microsomes % compound remaining at 40 minutes [2]: 11% | half-life at 1 μM [2]: < 10 min | IC50 [4]: 4.6 nM | EC50 [1, 7]: < 100 nM

C=C(C)[C@@H]1CC[C@]2(C(=O)NCc3cccc(C)n3)CC[C@]3(C)[C@H](CC[C@@H]4[C@@]5(C)CC[C@H](OC(=O)CC(C)(C)C(=O)O)C(C)(C)[C@@H]5CC[C@]43C)[C@@H]12 [Compound 108]
EC50 [1, 7]: < 100 nM

C=C(C)[C@@H]1CC[C@]2(C(=O)NCc3ccc4ccccc4n3)CC[C@]3(C)[C@H](CC[C@@H]4[C@@]5(C)CC[C@H](OC(=O)CC(C)(C)C(=O)O)C(C)(C)[C@@H]5CC[C@]43C)[C@@H]12 [Compound 111]
EC50 [1, 7]: < 100 nM

C=C(C)[C@@H]1CC[C@]2(C(=O)NCc3ccc4cccc(O)c4n3)CC[C@]3(C)C(CCC4[C@@]5(C)CCC(OC(=O)CC(C)(C)C(=O)O)C(C)(C)C5CC[C@]43C)C12 (stereo partly drawn) [Compound 131]
EC50 [1, 5]: 3 nM | IC50 (HIV-1IIIB; Table 7): 3.5 nM

C=C(C)[C@@H]1CC[C@]2(C(=O)NC(C)(C)c3ccccn3)CC[C@]3(C)C(CCC4[C@@]5(C)CCC(OC(=O)CC(C)(C)C(=O)O)C(C)(C)C5CC[C@]43C)C12 (stereo partly drawn) [Compound 126]
Metabolic Stability in Human liver Microsomes % compound remaining at 40 minutes [2]: 47% | half-life at 1 μM [2]: 38 min | IC50 (HIV-1IIIB; Table 6): 47.5 nM

C=C(C)[C@@H]1CC[C@]2(C(=O)N[C@@H](C)c3cccc[n+]3[O-])CC[C@]3(C)C(CCC4[C@@]5(C)CCC(OC(=O)CC(C)(C)C(=O)O)C(C)(C)C5CC[C@]43C)C12 (stereo partly drawn) [Compound 132]
EC50 [1, 5]: 36 nM | IC50 (HIV-1IIIB; Table 7): 44 nM
